PubChem BioAssay (NCI)
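How tested: cells in 96-well plates exposed to compound for 48 hours at five concentrations. TGI: total growth inhibition.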

Experiments:
Assay in all cases: NCI-60 cell line screen, 48 h
SF-268 CNS = tested on: SF-268 CNS
SF-295 CNS = tested on: SF-295 CNS
CAKI-1 renal = tested on: CAKI-1 renal
NCI-H460 lung = tested on: NCI-H460 lung
NCI-H522 lung = tested on: NCI-H522 lung
EKVX NSCLC = tested on: EKVX NSCLC
IGROV1 ovarian = tested on: IGROV1 ovarian
OVCAR-5 ovarian = tested on: OVCAR-5 ovarian
OVCAR-4 ovarian = tested on: OVCAR-4 ovarian
COLO 205 colon = tested on: COLO 205 colon
A549 NSCLC = tested on: A549 NSCLC
SK-MEL-2 melanoma = tested on: SK-MEL-2 melanoma
UACC-62 melanoma = tested on: UACC-62 melanoma
MDA-MB-231 breast = tested on: MDA-MB-231 breast
PC-3 prostate = tested on: PC-3 prostate
BT-549 breast = tested on: BT-549 breast
MDA-N = tested on: MDA-N

COc1ccc(/C=N/NC(=O)CSc2nc(-c3ccccc3)c(-c3ccccc3)[nH]2)cc1OC
TGI (SF-268 CNS): > 100 µM | TGI (SF-295 CNS): 55.9 µM | TGI (CAKI-1 renal): 72.9 µM | TGI (NCI-H460 lung): 91.6 µM | TGI (NCI-H522 lung): 39.9 µM | TGI (EKVX NSCLC): 72.5 µM | TGI (IGROV1 ovarian): 55.5 µM | TGI (OVCAR-5 ovarian): 64 µM | TGI (OVCAR-4 ovarian): 87.4 µM | TGI (COLO 205 colon): 49.2 µM | TGI (A549 NSCLC): > 100 µM | TGI (SK-MEL-2 melanoma): 39.1 µM | TGI (UACC-62 melanoma): 40.5 µM

COc1ccc([C@H]2[C@@H]3CCc4ccccc4C3=NN2C(N)=S)cc1OC
TGI (SF-268 CNS): > 100 µM | TGI (NCI-H460 lung): > 100 µM | TGI (NCI-H522 lung): 59.7 µM | TGI (EKVX NSCLC): > 100 µM | TGI (IGROV1 ovarian): > 100 µM | TGI (OVCAR-5 ovarian): > 100 µM | TGI (OVCAR-4 ovarian): > 100 µM | TGI (A549 NSCLC): > 100 µM | TGI (SK-MEL-2 melanoma): > 100 µM | TGI (UACC-62 melanoma): > 100 µM

COc1ccc(-n2nnc3c(C#N)c(C)c(-c4ccccc4)n3c2=O)cc1
TGI (SF-268 CNS): > 100 µM | TGI (SF-295 CNS): > 27.5 µM | TGI (CAKI-1 renal): > 100 µM | TGI (NCI-H460 lung): > 39.3 µM | TGI (EKVX NSCLC): > 26.1 µM | TGI (MDA-MB-231 breast): > 79.1 µM | TGI (IGROV1 ovarian): > 100 µM | TGI (PC-3 prostate): > 100 µM | TGI (OVCAR-5 ovarian): > 57.6 µM | TGI (OVCAR-4 ovarian): > 100 µM | TGI (COLO 205 colon): 10.6 µM | TGI (A549 NSCLC): > 38.8 µM | TGI (SK-MEL-2 melanoma): > 100 µM | TGI (UACC-62 melanoma): > 100 µM | TGI (BT-549 breast): > 100 µM

CC(=O)NC(CCCCN(Cc1ccccc1)C(=O)N(C)N=O)C(=O)NCc1ccccc1 (centres undefined)
TGI (SF-268 CNS): > 100 µM | TGI (SF-295 CNS): > 100 µM | TGI (CAKI-1 renal): > 100 µM | TGI (NCI-H460 lung): > 100 µM | TGI (NCI-H522 lung): > 100 µM | TGI (EKVX NSCLC): > 100 µM | TGI (IGROV1 ovarian): > 100 µM | TGI (OVCAR-5 ovarian): > 100 µM | TGI (OVCAR-4 ovarian): > 100 µM | TGI (COLO 205 colon): > 100 µM | TGI (A549 NSCLC): > 100 µM | TGI (SK-MEL-2 melanoma): > 100 µM | TGI (UACC-62 melanoma): > 100 µM

CC(=O)Nc1ccc(S(=O)(=O)N/N=C(\C)CN2C(=O)c3ccccc3C2=O)cc1
TGI (SF-295 CNS): > 100 µM | TGI (CAKI-1 renal): > 100 µM | TGI (NCI-H460 lung): > 100 µM | TGI (NCI-H522 lung): > 100 µM | TGI (EKVX NSCLC): > 100 µM | TGI (IGROV1 ovarian): > 100 µM | TGI (OVCAR-5 ovarian): > 100 µM | TGI (OVCAR-4 ovarian): > 100 µM | TGI (COLO 205 colon): > 100 µM | TGI (A549 NSCLC): > 100 µM | TGI (SK-MEL-2 melanoma): > 100 µM | TGI (UACC-62 melanoma): > 100 µM

O=C1NC(=O)C23C(=O)NC(=O)C12C1C=CC3CC1 (centres undefined)
TGI (SF-268 CNS): > 10 µM | TGI (SF-295 CNS): > 10 µM | TGI (CAKI-1 renal): > 10 µM | TGI (NCI-H460 lung): > 10 µM | TGI (NCI-H522 lung): > 10 µM | TGI (EKVX NSCLC): > 10 µM | TGI (MDA-MB-231 breast): > 10 µM | TGI (IGROV1 ovarian): > 10 µM | TGI (MDA-N): > 10 µM | TGI (PC-3 prostate): > 10 µM | TGI (OVCAR-4 ovarian): > 10 µM | TGI (COLO 205 colon): > 10 µM | TGI (A549 NSCLC): > 10 µM | TGI (SK-MEL-2 melanoma): > 10 µM | TGI (UACC-62 melanoma): > 10 µM

Cc1ccc(C2SCc3nc4ccccc4n32)cc1 (centres undefined)
TGI (SF-268 CNS): > 100 µM | TGI (SF-295 CNS): 7.17 µM | TGI (CAKI-1 renal): 49.7 µM | TGI (NCI-H460 lung): > 100 µM | TGI (NCI-H522 lung): 85.6 µM | TGI (EKVX NSCLC): > 100 µM | TGI (MDA-MB-231 breast): > 100 µM | TGI (IGROV1 ovarian): > 100 µM | TGI (PC-3 prostate): 21.2 µM | TGI (OVCAR-5 ovarian): > 100 µM | TGI (OVCAR-4 ovarian): 92.8 µM | TGI (COLO 205 colon): 3.45 µM | TGI (A549 NSCLC): > 100 µM | TGI (SK-MEL-2 melanoma): 5.56 µM | TGI (UACC-62 melanoma): 21.3 µM

N#CC(C(=S)Nc1ccccc1)=C1Nc2ccccc2N1
TGI (SF-268 CNS): > 10 µM | TGI (CAKI-1 renal): > 10 µM | TGI (NCI-H460 lung): > 10 µM | TGI (NCI-H522 lung): > 10 µM | TGI (EKVX NSCLC): > 10 µM | TGI (OVCAR-5 ovarian): > 10 µM | TGI (OVCAR-4 ovarian): > 10 µM | TGI (COLO 205 colon): > 10 µM | TGI (A549 NSCLC): > 10 µM | TGI (SK-MEL-2 melanoma): > 10 µM | TGI (UACC-62 melanoma): > 10 µM
